# Test results published in patent US20230303486A1, “CYCLOBUTYL-UREA DERIVATIVES” (Idorsia Pharmaceuticals Ltd, priority 2020, published 2023).
# Read-outs that look alike come from different tables or passages of the source.
# Columns and labels:
# [1] = test system: primary neuronal cultures from embryonic rat brains; assay: Rat oscillation assay (FLIPR, neuronal calcium oscillations); format: cell-based
# Procedure, shortened: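 E18 Wistar rat cortical neurons cultured 8–10 days, loaded with 1 µM Fluo-8 AM, then kept in Mg2+-free HEPES-buffered HBSS (2 mM CaCl2, pH 7.4) to drive synchronized calcium oscillations. Fluorescence read at 1 Hz over 500 sec with or without XE-991, compound added at 250 sec; second acquisition 20 min after addition.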
# [2] = target: T1, Kv7.2/7.3 (human KCNQ2 and KCNQ3 genes) in HEK293 cells (Homo sapiens, UniProt O43525+O43526); assay: Kv7.2/3 assay (FLIPR potassium assay, agonist mode); format: cell-based; conditions: Kv7.2/7.3 activation, responses relative to Flupirtine
# T1 construct: host or cells: HEK293
# Experimental: HEK293 cells were stably transfected with the appropriate ion channel cDNA(s) (human KCNQ2 and KCNQ3 genes). Cells were cultured in Dulbecco’s Modified Eagle Medium /Nutrient mixture F-12 (D-MEM/F-12) supplemented with 10% fetal bovine serum, 100 U/mL penicillin G sodium, 100 µg/mL streptomycin sulfate and selection antibiotics. FLIPR Test Procedure: For FLIPR assay, cells were plated in 384-well black clear-bottomed microtiter plates (BD Biocoat Poly-D-Lysine Multiwell Cell Culture Plate) at 15′000 to 30′000 cells per well. Cells were incubated at 37° C. overnight or until cells reached sufficient density in the wells (near confluent monolayer) to use in fluorescence assays. […] Assays were performed with the FLIPR potassium assay kit (Molecular Devices) according to the manufacturer’s instructions. Dye-loading: Growth media was removed and replaced with 20 µL of dye loading buffer for 60 min at room temperature. FLIPR Recording (agonist mode): Stock solutions of test compounds were prepared at a concentration of 33.3 mM in DMSO. 5 µL of 5x concentrated test, vehicle, or control compounds solutions prepared in the stimulation buffer (K^+-free buffer with 5 mM TI^+) were added to each well and fluorescence recording was continued for 5 min. The agonist effect (EC50 and % effect) of test or control compounds on Kv7 channels was determined as follows: Raw data was exported using Screenworks® 4.2 software and the fluorescence traces were analysed using Microsoft Excel (Microsoft Corp., Redmond, WA). The test compounds responses were expressed as % of maximum response of the control compound Flupirtine (Sigma-Aldrich), which was tested at concentrations ranging from 0.03 to 100 µM. Concentration-response data were fitted to a Hill equation. Non-linear least squares fits were made assuming a simple binding model. If appropriate, fits were weighted by the standard deviation. No assumptions about the fit parameters were made; the fit parameters were determined by the algorithm.
SMILES,"IC50 ([1]; 20 min after compound addition, AUC of fluorescence, read-out: FLIPR: IC50 [nM] 20 min) [nM]","IC50 ([1]; acute phase, ratio of AUC fluorescence before and after compound addition, rat cortical neurons, Mg-free buffer, read-out: FLIPR: IC50 [nM] acute) [nM]",EC50 [2] [nM],"IC50 ([1]; Rattus norvegicus, 20 min, 20 min after compound addition, AUC of fluorescence, read-out: FLIPR: IC50 [nM] 20 min) [nM]","IC50 ([1]; Rattus norvegicus, Cortical neurone, acute phase, ratio of AUC fluorescence before and after compound addition, rat cortical neurons, Mg-free buffer, read-out: FLIPR: IC50 [nM] acute) [nM]"
"O=C(NCc1cccc(C(F)(F)F)c1)NC1CC(C(F)F)C1 (single isomer, unassigned) [Example 53, 1-(3-(Difluoromethyl)Cyclobutyl)-3-(3-(Trifluoromethyl)Benzyl)Urea]",295,168,82,,
"O=C(NCc1cccc(C(F)(F)F)c1)NC12CC(C(F)F)(C1)C2 [Example 47, 1-(3-Difluoromethyl-Bicyclo[1.1.1]Pent-1-yl)-3-(3-Trifluoromethyl-Benzyl)-Urea]",,,59,160,118
